Series [1] has as its target VCCβ-prism (isolated β-prism domain of Vibrio cholerae cytolysin) (Vibrio cholerae serotype O1, UniProt P09545). The series can be described thus: biochemical. The series is classed as binding.
Series [2] deals with rabbit whole blood lysis by wild-type VCC.
The test system of a further series is D617K mutant of VCC. The class given is binding, Vibrio cholerae.
The target of the next series is VCCβ-prism (Vibrio cholerae serotype O1, UniProt P09545). The series is classed as binding.
Sequence of VCCβ-prism (P09545 611-741 limits assumed): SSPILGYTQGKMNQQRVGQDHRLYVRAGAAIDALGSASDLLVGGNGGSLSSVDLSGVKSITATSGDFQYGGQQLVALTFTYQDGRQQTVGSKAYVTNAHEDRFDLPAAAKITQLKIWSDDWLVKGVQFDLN
The next series deals with VCC. To be noted: cited from earlier work.
In a further series the test system is VCCWT. The series is classed as binding, Vibrio cholerae.

Values joined by “and” are separate entries in the source; they are usually repeats but may differ in a detail not shown here. Equal entries are not always repeated. Where two headings read alike, the source gives them in different places.

This is an account of results in article PMC3578121 (Journal of molecular biology, 2012).

Sequence of VCCβ-prism (isolated β-prism domain of Vibrio cholerae cytolysin) (P09545 611-741 limits assumed): as above

`OC[C@H]1O[C@H](O[C@H]2[C@H](O)[C@@H](O)C(O)O[C@@H]2CO)[C@H](O)[C@@H](O)[C@@H]1O` (mixture of isomers) [Maltose, glucose-α1,4-glucose]: in series [1], the “KD of maltose relative to KD of Me-α-mannose” value came to 10 fold, the Kd is 30.9 ± 3.17 mM and the ΔG was -2.09 kcal/mol.
For `C[C@H](O)[C@@H](O)[C@@H](O)[C@H](O)C=O` [Fucose, L-fucose], the “Binding detected by ITC” value in series [1] is “did not exhibit measurable binding”.
For `OC[C@H]1OC(O)[C@H](O)[C@@H](O)[C@@H]1O` (stereo partly drawn) [Glucose], in series [1], the Kd was determined as 12 ± 0.6 mM and the ΔG was -2.679 kcal/mol.
In the same order, the values of `OC[C@H]1OC(O)[C@@H](O)[C@@H](O)[C@@H]1O` (stereo partly drawn) [Mannose, D-mannose] are 14.8 ± 1.18 mM and -2.456 kcal/mol.
Regarding `CO[C@H]1O[C@H](CO)[C@H](O)[C@H](O)[C@H]1O` [Me-α-Galactose, Me-α-D-galactose], the “Binding detected by ITC” value in series [1] is recorded as “did not bind”.
As to `COC1OC(CO)C(O)C(O)C1O` [Me-α-Glucose, Me-α-D-glucose], in series [1], the Kd is 7.1 mM and 7.09 mM; the ΔG is -2.944 kcal/mol.
`COC1OC(CO)C(O)C(O)C1O` (stereo not drawn) [Me-α-Mannose, methyl-α-mannose]: in series [1], the “Increase in affinity of Me-α-D-mannose over D-mannose” value is given as “roughly five-fold increase”, the Kd was 3.24 ± 0.1 mM and the ΔG was -3.424 kcal/mol. For the same compound, in series [2], the “Effect on half-life (t1/2) of rabbit blood hemolysis by VCC” value is “no effect”. Moreover, in the series with D617K mutant of VCC, the “Binding detected by ITC” value was “could not detect measurable binding”.
Turning to `CO[C@@H]1O[C@H](CO)[C@@H](O)[C@H](O)[C@@H]1O` [Me-β-D-mannose], the “Binding detected by ITC” value in series [1] is recorded as “loss of binding”.
Still for that read-out and setting: then `COC1OC(CO)C(O)C(O)C1O` [Me-β-Galactose, Me-β-D-galactose], with “did not bind”; and `COC1OC(CO)C(O)C(O)C1O` [Me-β-Glucose, Me-β-D-glucose], with “did not bind”.
On the same count and under the same terms, then `CC(=O)N[C@@H]1[C@@H](O)[C@H](O)[C@@H](CO)O[C@H]1O` [N-acetylglucosamine, N-acetyl-D-glucosamine], with “did not exhibit measurable binding”; and `O=C[C@H](O)[C@@H](O)[C@H](O[C@@H]1O[C@H](CO)[C@@H](O)[C@H](O)[C@H]1O)[C@H](O)CO` [cellobiose, glucose-β1,4-glucose], with “did not bind”.
As to “GlcNAcβ1-2Manα1-6(GlcNAcβ1-2Manα1-3)Manβ1-4GlcNAcβ1-4GlcNAc [NGA2]”, the association rate ka at VCCβ-prism is on record as 37,000 M^−1s^−1. The same compound displayed a dissociation rate kd at VCCβ-prism of 0.040 s⁻¹. In addition, the values for the Kd on VCCβ-prism (read-out: Affinity (approximate summary)), on VCCβ-prism (read-out: KD (equilibrium analysis)) and on VCCβ-prism (read-out: KD (kinetic fit)) were roughly 0.0001 mM, 0.000183 mM and 0.000108 mM, respectively.
For the compound fetuin, the “Inhibition of VCC activity” value in the series with VCC is listed as “inhibited”.
On to galactose-α-1,4-galactose [galabiose], for which, in the series on VCCWT, the “Average fluorescence of VCC binding to glycan” value is recorded as no more than 100 RFUs.
The same measure, in the same setting: then “galactose-β-1,4(fucose-α-1,3)N-acetyl glucosamine [Lewis X]”, with no more than 100 RFUs; and lacto-N-biose, with no more than 100 RFUs.
